# Experimental data reported in patent publication US7605265B2, “Heterodimers and methods of using them” (priority 2007, dated 2009).
# Legend:
# [1] = molecular target: T1, butyrylcholinesterase (BChE) (Rattus norvegicus, UniProt Q9JKC1); assay: biochemical
# T1 construct: from tissue; host or cells: rat serum
# [2] = tested on: scopolamine-induced memory impaired rats; assay: Morris water maze, scopolamine-induced memory impairment; type: in vivo, rat
# Method: The Morris water maze consists of a water pool with a hidden, submerged escape platform. The rats must learn, over a period of consecutive days, the location of the platform using either contextual or local cues. The time taken to locate the hidden platform (escape latency) is a measure of the animal's cognitive abilities.
# (§1) Scopolamine (0.1 mg/kg) was first i.p. administered to young adult rats to impair their memories. Scopolamine-induced memory impaired rats were then orally administered one of three different doses of compound B (0.025, 0.050, or 0.100 mg/kg) and subjected to the Morris water maze over a period of 4 days. On each day, the time taken for the rats to detect the hidden platform in the water maze was measured, in seconds.
# as §1, with “C (0.1, 0.2,” for “B (0.025, 0.050,”, “0.4” for “0.100”
# as §1, with “A (0.1, 0.2,” for “B (0.025, 0.050,”, “0.4” for “0.100”
# A spatial bias (% of total distance swum in the training quadrant during spatial probe trial) for the region of the apparatus where the platform was positioned during training was also measured for compounds B and C.
# The spatial bias for the region of the testing apparatus where the hidden platform was positioned during training was measured. […] Tacrine (THA) was included for comparison purposes.
# transient focal ischemia = assay: MCAO (middle carotid artery occlusion model), transient focal ischemia; type: in vivo, mice
# Method: The MCAO (middle carotid artery occlusion model) was performed to investigate the protective effects of compounds A, B and C on the brain when the brain was exposed to transient focal ischemia (lack of oxygen), emulating brain conditions during a stroke. […] The ability of the novel compounds to protect against the appearance of these neurological deficits was examined using a four-point scale neurological scoring system (Mann Whitney U test). For each of the following observable signs, the distribution of test subjects was noted (with and without treatment with the invention after ischemia): (0) no observable neurological deficits (normal); (1) failure to extend the left forepaw fully (mild); (2) circling to the contralateral side (moderate); and (3) loss of walking and righting reflex (severe). • (ii) The brains of the test subjects slices were sectioned into five pieces and the infarct area and volume of each slice was measured. The % of infarct area in test subjects treated with the invention after ischemia was compared to that of the control group for each brain slice. • (iii) Hemispheric brain swelling and infarct volume (the area of dead tissue caused by inadequate blood supply) was measured for test subjects treated with the invention after ischemia, and compared to that of the control group.
# The compounds were administered 5 minutes after ischemia, 5 minutes after reperfusion, or 6 hours after ischemia. FIGS. 5a to 5f show results for the heterodimers compound B, C or A respectively, when administered 5 minutes after ischemia or reperfusion. FIGS. 5g and 5h show the results when the novel heterodimers were administered 6 hours after ischemia.
# Compound B was administered at 5 minutes after ischemia. Distribution of neurological scores based on a four-point scale neurological scoring system (Mann Whitney U test): (0) no observable neurological deficits (normal); (1) failure to extend the left forepaw fully (mild); (2) circling to the contralateral side (moderate); and (3) loss of walking and righting reflex (severe).
# The brain was sectioned into five pieces, each 2-mm thick. The infarct area of each posterior surface was analyzed by an image analysis program. The percentage of infarct area and volume were calculated and presented as the percentage of the infarct area of the contralateral hemisphere to eliminate the contribution of edema to the ischemic lesion.
# The infarct area of each posterior surface was analyzed by an image analysis program. Hemispheric brain swelling was calculated as follows (ipsilateral volume−contralateral volume)/contralateral volume×100%.
# [3] = 0.005 mg/kg, 5 minutes after ischemia
# [4] = 0.05 mg/kg, 5 minutes after ischemia
# [5] = 0.1 mg/kg, 5 minutes after ischemia
# [6] = 0.2 mg/kg, 5 minutes after ischemia
# T1 sequence (Q9JKC1 24-597): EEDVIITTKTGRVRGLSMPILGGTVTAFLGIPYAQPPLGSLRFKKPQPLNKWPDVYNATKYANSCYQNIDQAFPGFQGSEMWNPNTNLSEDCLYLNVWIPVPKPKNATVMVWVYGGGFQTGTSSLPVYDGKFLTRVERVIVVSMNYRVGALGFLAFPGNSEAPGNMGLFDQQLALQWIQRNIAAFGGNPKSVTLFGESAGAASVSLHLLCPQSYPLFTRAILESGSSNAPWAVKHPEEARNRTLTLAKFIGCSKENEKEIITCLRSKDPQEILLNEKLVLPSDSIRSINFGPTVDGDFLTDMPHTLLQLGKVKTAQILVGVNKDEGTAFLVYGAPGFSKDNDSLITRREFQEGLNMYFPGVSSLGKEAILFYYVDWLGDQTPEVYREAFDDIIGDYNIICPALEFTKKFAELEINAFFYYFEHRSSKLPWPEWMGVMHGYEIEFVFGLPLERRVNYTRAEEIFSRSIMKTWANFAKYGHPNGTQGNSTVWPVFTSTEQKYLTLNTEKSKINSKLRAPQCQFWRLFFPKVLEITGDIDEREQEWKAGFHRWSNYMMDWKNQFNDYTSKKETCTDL
compound,measurement,setting,value
O=c1ccc2c([nH]1)CCC(NCCCNc1c3c(nc4cc(Cl)ccc14)CCCC3)C2 (centres unmarked) [Compound A],IC50,[1],56.7 ± 25 nM
same,scopolamine-induced performance deficits (escape latency),"[2]; 0.2 and 0.4 mg/kg orally, scopolamine 0.1 mg/kg i.p., FIG. 4c",significantly reversed scopolamine-induced performance deficits
same,spatial bias,"[2]; 0.2 and 0.4 mg/kg, scopolamine 0.1 mg/kg, FIG. 4e, 4f",spatial bias close to control levels
same,spatial bias (% of total distance swum in the training quadrant during spatial probe trial),"[2]; memory-impaired rats, FIG. 4d-4f",significantly increased spatial bias
same,% Infarct area in brain slice # 1,transient focal ischemia; [3],2.2 ± 2.0%
same,% Infarct area in brain slice # 2,transient focal ischemia; [3],48.8 ± 4.3%
same,% Infarct area in brain slice # 3,transient focal ischemia; [3],49.3 ± 4.4%
same,% Infarct area in brain slice # 4,transient focal ischemia; [3],26.5 ± 9.3%
same,% Infarct area in brain slice # 5,transient focal ischemia; [3],−4.3 ± 0.6%
same,Hemispheric swelling (%),transient focal ischemia; [3],10.3 ± 0.4%
same,Infarct volume (%),transient focal ischemia; [3],31.3 ± 4.3%
same,Observed Neurological Deficits Mean ± SEM,transient focal ischemia; [3],1.6 ± 0.2
same,"Observed Neurological Deficits, score 0 (number of animals)",transient focal ischemia; [3],0
same,"Observed Neurological Deficits, score 1 (number of animals)",transient focal ischemia; [3],2
same,"Observed Neurological Deficits, score 2 (number of animals)",transient focal ischemia; [3],3
same,"Observed Neurological Deficits, score 3 (number of animals)",transient focal ischemia; [3],0
same,n (dead/total): dead/total,transient focal ischemia; [3],5 (5/10)
same,% Infarct area in brain slice # 1,transient focal ischemia; [4],−0.4 ± 2.2%
same,% Infarct area in brain slice # 2,transient focal ischemia; [4],39.1 ± 2.4 %
same,% Infarct area in brain slice # 3,transient focal ischemia; [4],44.5 ± 0.9 %
same,% Infarct area in brain slice # 4,transient focal ischemia; [4],17.1 ± 3.2 %
same,% Infarct area in brain slice # 5,transient focal ischemia; [4],−6.3 ± 2.8%
same,Hemispheric swelling (%),transient focal ischemia; [4],15.5 ± 1.1%
same,Infarct volume (%),transient focal ischemia; [4],24.8 ± 1.1 %
same,Observed Neurological Deficits Mean ± SEM,transient focal ischemia; [4],1.2 ± 0.2
same,"Observed Neurological Deficits, score 0 (number of animals)",transient focal ischemia; [4],0
same,"Observed Neurological Deficits, score 1 (number of animals)",transient focal ischemia; [4],5
same,"Observed Neurological Deficits, score 2 (number of animals)",transient focal ischemia; [4],1
same,"Observed Neurological Deficits, score 3 (number of animals)",transient focal ischemia; [4],0
same,n (dead/total): dead/total,transient focal ischemia; [4],6 (1/7)
same,% Infarct area in brain slice # 1,transient focal ischemia; [5],2.0 ± 1.8%
same,% Infarct area in brain slice # 2,transient focal ischemia; [5],49.5 ± 2.0 %
same,% Infarct area in brain slice # 3,transient focal ischemia; [5],48.4 ± 1.8 %
same,% Infarct area in brain slice # 4,transient focal ischemia; [5],10.4 ± 3.3 %
same,% Infarct area in brain slice # 5,transient focal ischemia; [5],−9.9 ± 1.7%
same,Hemispheric swelling (%),transient focal ischemia; [5],12.5 ± 1.1%
same,Infarct volume (%),transient focal ischemia; [5],26.5 ± 1.4 %
same,Observed Neurological Deficits Mean ± SEM,transient focal ischemia; [5],1.2 ± 0.1
same,"Observed Neurological Deficits, score 0 (number of animals)",transient focal ischemia; [5],0
same,"Observed Neurological Deficits, score 1 (number of animals)",transient focal ischemia; [5],7
same,"Observed Neurological Deficits, score 2 (number of animals)",transient focal ischemia; [5],2
same,"Observed Neurological Deficits, score 3 (number of animals)",transient focal ischemia; [5],0
same,n (dead/total): dead/total,transient focal ischemia; [5],9 (4/13)
same,% Infarct area in brain slice # 1,transient focal ischemia; [6],1.3 ± 0.7%
same,% Infarct area in brain slice # 2,transient focal ischemia; [6],44.7 ± 6.6%
same,% Infarct area in brain slice # 3,transient focal ischemia; [6],49.0 ± 3.8%
same,% Infarct area in brain slice # 4,transient focal ischemia; [6],37.3 ± 3.8%
same,% Infarct area in brain slice # 5,transient focal ischemia; [6],−3.3 ± 1.6%
same,Hemispheric swelling (%),transient focal ischemia; [6],15.2 ± 1.2%
same,Infarct volume (%),transient focal ischemia; [6],33.8 ± 1.6%
same,Observed Neurological Deficits Mean ± SEM,transient focal ischemia; [6],1.9 ± 0.7
same,"Observed Neurological Deficits, score 0 (number of animals)",transient focal ischemia; [6],0
same,"Observed Neurological Deficits, score 1 (number of animals)",transient focal ischemia; [6],2
same,"Observed Neurological Deficits, score 2 (number of animals)",transient focal ischemia; [6],4
same,"Observed Neurological Deficits, score 3 (number of animals)",transient focal ischemia; [6],1
same,n (dead/total): dead/total,transient focal ischemia; [6],7 (4/11)
same,infarct area (in words),"transient focal ischemia; 0.05 and 0.1 mg/kg, 5 minutes after ischemia, FIG. 5e",improvement in the infarct area
same,infarct volume and hemispheric swelling (in words),"transient focal ischemia; 5 minutes after ischemia (compound A: 0.05 and 0.1 mg/kg), FIG. 5b, 5f",decreases infarct volume but not hemispheric swelling
same,neurological deficits induced by ischemia (in words),transient focal ischemia; administered 5 minutes after ischemia,reduced neurological deficits induced by ischemia
